From US20250346602A1, “LACTAM SUBSTITUTED IMIDAZOPYRIDAZINE IL-17A MODULATORS AND USES THEREOF” (DICE ALPHA, INC., priority 2022, published 2025)

Biological target: T1, IL-17A/A (Homo sapiens, UniProt Q16552)
T1 construct: purchased Genscript Z03228
T1 sequence (Q16552 24-155): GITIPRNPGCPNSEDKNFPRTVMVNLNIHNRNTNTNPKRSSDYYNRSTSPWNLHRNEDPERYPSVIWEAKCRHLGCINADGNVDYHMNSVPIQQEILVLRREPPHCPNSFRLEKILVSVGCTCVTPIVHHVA
Test: IL-17A/A HEK-Blue cell assay
Type: cell-based
Conditions: HEK-Blue IL-17A reporter cell line (HEK 293), IL-17A/A stimulation, 20 hours incubation, SEAP read at A630
How it was run: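 HEK293 reporter cells expressing IL-17RA, IL-17RC and Act1 were given titrated compound (top final 10, 1 or 0.3 uM; 0.1% DMSO) right before IL-17A/A and incubated 20 hours. NFκB-driven SEAP in the media was read at A630 with Quanti-Blue, and IC50 came from a 4-parameter nonlinear fit.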

Compound	IC50 [nM]
O=C(N[C@H](c1cn2nc(CC3C[C@@H](C(F)(F)F)CNC3=O)ccc2n1)C1CCC(F)(F)CC1)c1ccnn1C1CC1 (stereo partly drawn) [Compound 137, 1-cyclopropyl-N-((1S)-(4,4-difluorocyclohexyl)(6-(((5R)-2-oxo-5-(trifluoromethyl)piperidin-3-yl)methyl)imidazo[1,2-b]pyridazin-2-yl)methyl)-1H-pyrazole-5-carboxamide]	100 to 1000
O=C(N[C@H](c1cn2nc(CC3C[C@@H](C(F)(F)F)CNC3=O)ccc2n1)C1CCC(F)(F)CC1)c1conc1C1(C(F)(F)F)CC1 (stereo partly drawn) [Compound 138, N-((1S)-(4,4-difluorocyclohexyl)(6-(((5R)-2-oxo-5-(trifluoromethyl)piperidin-3-yl)methyl)imidazo[1,2-b]pyridazin-2-yl)methyl)-3-(1-(trifluoromethyl)cyclopropyl)isoxazole-4-carboxamide]	100 to 1000
O=C1NC[C@H](C(F)(F)F)CC1Cc1ccc2nc([C@@H](NC(=O)C3(F)CC3)C3CCC(F)(F)CC3)cn2n1 (stereo partly drawn) [Compound 139, N-((1S)-(4,4-difluorocyclohexyl)(6-(((5R)-2-oxo-5-(trifluoromethyl)piperidin-3-yl)methyl)imidazo[1,2-b]pyridazin-2-yl)methyl)-1-fluorocyclopropane-1-carboxamide]	> 1000
O=C(N[C@H](c1cn2nc(CC3C[C@@H](C(F)(F)F)CNC3=O)ccc2n1)C1CCC(F)(F)CC1)c1conc1C12CC(F)(C1)C2 (stereo partly drawn) [Compound 140, N-((1S)-(4,4-difluorocyclohexyl)(6-(((5R)-2-oxo-5-(trifluoromethyl)piperidin-3-yl)methyl)imidazo[1,2-b]pyridazin-2-yl)methyl)-3-(3-fluorobicyclo[1.1.1]pentan-1-yl)isoxazole-4-carboxamide]	100 to 1000
CCc1nonc1C(=O)N[C@H](c1cn2nc(CC3C[C@@H](C(F)(F)F)CNC3=O)ccc2n1)[C@H]1CC[C@H](C)CC1 (stereo partly drawn) [Compound 141, 4-Ethyl-N-((1S)-((1R.4S)-4-methylcyclohexyl)(6-(((5R)-2-oxo-5-(trifluoromethyl)piperidin-3-yl)methyl)imidazo[1,2-b]pyridazin-2-yl)methyl)-1,2,5-oxadiazole-3-carboxamide]	< 100
CCn1nccc1C(=O)N[C@H](c1cn2nc(CC3C[C@@H](C(F)(F)F)CNC3=O)ccc2n1)[C@H]1CCCC(F)(F)C1 (stereo partly drawn) [Compound 142, N-((1S)—((S)-3,3-difluorocyclohexyl)(6-(((5R)-2-oxo-5-(trifluoromethyl)piperidin-3-yl)methyl)imidazo[1,2-b]pyridazin-2-yl)methyl)-1-ethyl-1H-pyrazole-5-carboxamide]	< 100
CCn1nccc1C(=O)N[C@H](c1cn2nc(CC3C[C@@H](C(F)(F)F)CNC3=O)ccc2n1)[C@@H]1CCCC(F)(F)C1 (stereo partly drawn) [Compound 143, N-((1S)—((R)-3,3-difluorocyclohexyl)(6-(((5R)-2-oxo-5-(trifluoromethyl)piperidin-3-yl)methyl)imidazo[1,2-b]pyridazin-2-yl)methyl)-1-ethyl-1H-pyrazole-5-carboxamide]	< 100
O=C(N[C@H](c1cn2nc(CC3C[C@@H](C(F)(F)F)CNC3=O)ccc2n1)[C@H]1CCCC(F)(F)C1)c1nonc1C1CC1 (stereo partly drawn) [Compound 144, 4-cyclopropyl-N—((S)-((S)-3,3-difluorocyclohexyl)(6-(((5R)-2-oxo-5-(trifluoromethyl)piperidin-3-yl)methyl)imidazo[1,2-b]pyridazin-2-yl)methyl)-1,2,5-oxadiazole-3-carboxamide]	< 100
O=C(N[C@H](c1cn2nc(CC3C[C@@H](C(F)(F)F)CNC3=O)ccc2n1)[C@@H]1CCCC(F)(F)C1)c1nonc1C1CC1 (stereo partly drawn) [Compound 145, 4-cyclopropyl-N—((S)-((R)-3,3-difluorocyclohexyl)(6-(((5R)-2-oxo-5-(trifluoromethyl)piperidin-3-yl)methyl)imidazo[1,2-b]pyridazin-2-yl)methyl)-1,2,5-oxadiazole-3-carboxamide]	< 100
